Read-outs that look alike come from different tables or passages of the source.
Tests used:
P. falciparum ABS = details: cited from earlier work; for EC50: ChEMBL Data, P. falciparum, read-out: TCMDC (ref 93) EX50; for IC50: P. falciparum 3D7, ref PBox supporting information, read-out: Pf 3D7 Pbox IC50
HEK293 cells = experiment: HEK293 resazurin cell cytotoxicity assay; details: Homo sapiens; for IC50: HEK293, read-out: HEK % Inhibition 20uM/IC50 Discovery Biology (IA); for inhibition at 20 µM: HEK293, read-out: HEK % Inhibition 20uM/IC50 Discovery Biology
HepG2 = details: cited from earlier work
[1] = tested on: Plasmodium falciparum 3D7 asexual blood stage; experiment: microbe, parasite or virus in culture
[2] = tested on: NF54-pfs16-LUC-GFP stage IV gametocytes; experiment: Plasmodium falciparum late stage gametocyte (LSG) image-based assay; format: cell-based; details: Plasmodium falciparum
[3] = tested on: T. b. brucei 427 bloodstream trypanosomes; experiment: T. b. brucei resazurin viability assay; format: cell-based, Trypanosoma brucei brucei; details: Trypanosoma brucei
[4] = ref Pbox supporting information
[5] = read-out: HepG2 PBox CC50 µM, HepG2 cytotoxicity, ref PBox supporting information
[6] = 3D7, read-out: Antiplasmodial IC50 (ABS), PBox compounds, P. falciparum 3D7
[7] = NF54, read-out: Antiplasmodial IC50 (GAM / LSG), PBox compounds, stage IV gametocytes, single determination
[8] = 3D7, read-out: activity against P. falciparum (novel antiplasmodial actives of the tuberculosis set)
[9] = read-out: T b.brucei Discovery Biology IC50
[10] = read-out: HepG2 PBox CC50, HepG2, ref PBox supporting information
[11] = HepG2, ref PBox supporting information

CC(C)c1ncc(-c2ccncc2)c([C@H]2CC[C@H](CNC(=O)c3cccnc3)CC2)n1 [MMV676442]
EC50 (P. falciparum ABS): 0.78 µM
IC50 (P. falciparum ABS): 0.84 µM
IC50 (HEK293 cells): > 20 µM

Cc1[nH]c2cc(F)cc(F)c2c(=O)c1-c1ccc(Oc2ccc(OC(F)(F)F)cc2)cc1 [MMV671636]
HepG2 PBox CC20 μMc (HepG2; [4]): >80 µM
IC50 ([1]; 3D7, read-out: Antiplasmodial IC50 (ABS)): 1.01 µM
IC50 (HEK293 cells): > 20 µM

Cc1cccc(-c2nc(Nc3ccncn3)c3sccc3n2)n1 [MMV688122]
CC50 (HepG2; [5]): 14.3 µM
IC50 [1, 6]: 2.11 µM
IC50 [2, 7]: 0.11 µM

Cc1ccc2[nH]c(C3CCCNC3)c(-c3ccncc3)c2c1 (stereo not drawn) [MMV024311]
CC50 (HepG2; [5]): 12.7 µM
IC50 [1, 6]: 0.75 µM
EC50 (P. falciparum ABS; TCMDC set): 1.23 µM
IC50 ([3]; read-out: T b.brucei Discovery Biology IC50 µM): 5.15 µM

Nc1ncc(Br)cc1-c1nc2cc(Cl)cnc2[nH]1 [MMV676358]
IC50 (P. falciparum ABS): 1.5 µM
IC50 (HEK293 cells): > 20 µM

c1cncc(NCc2ccc(-c3cc4ccncc4cc3OC3CCNCC3)s2)c1 [MMV023969]
CC50 (HepG2; [5]): 8 µM
IC50 [1, 6]: 0.59 µM
EC50 (P. falciparum ABS; TCMDC set): 0.98 µM
inhibition at 20 µM (HEK293 cells): 86%

Cn1c(=O)c2c(S(C)(=O)=O)snc2n(C)c1=O [MMV687251]
CC50 (HepG2; [5]): 1.1 µM
inhibition at 20 µM (HEK293 cells): 100%

Brc1cncc(-c2cc(NCCCn3ccnc3)nc(-c3ccccc3)n2)c1 [MMV661713]
IC50 [1, 6]: 1.49 µM
IC50 [1, 8]: < 2 µM

c1ccc(-c2[nH]c3ccccc3c2C(c2ccccn2)N2CCCC2)cc1 (stereo not drawn) [MMV688762]
HepG2 PBox CC20 μMc (HepG2; [4]): 1 µM
IC50 (HEK293 cells): > 20 µM
IC50 ([2]; NF54, read-out: Pf Stage IV GAMS Discovery Biology IC50 µM, stage IV gametocytes): 3.16 µM

O=C(C1CCN(c2cc(-n3cccc3)ncn2)CC1)N1CCc2ccccc2C1 [MMV687172]
CC50 (HepG2; [5]): > 100 µM

CCCCS(=O)(=O)Nc1ccc2cnn(C)c2c1 [MMV687145]
CC50 (HepG2; [5]): > 100 µM

CC(C)(C)c1cnc(NC(=O)c2ccccc2O)s1 [MMV495543]
CC50 (HepG2; [5]): 47.6 µM
IC50 [3, 9]: 5.45 µM

O=C(NCCc1c[nH]c2ccccc12)c1cc2ccccc2oc1=O [MMV676539]
CC50 (HepG2; [5]): > 100 µM

COc1ccc(OC(C)C(=O)Nc2ccc(Cl)cc2C)cc1 (stereo not drawn) [MMV202458]
CC50 (HepG2; [5]): > 100 µM

Cn1ccnc1CNCCS(=O)(=O)c1cccc(Nc2ccc(-c3cccc(F)c3)cn2)c1 [MMV688466]
CC50 (HepG2; [10]): 46.1 µM

Cc1cc(NCCc2ccccc2)nc(NC(=N)Nc2ccc(Cl)cc2)n1 [MMV021660]
CC50 (HepG2; [5]): 6.5 µM
IC50 [1, 6]: 0.16 µM
EC50 (P. falciparum ABS; TCMDC set): 0.23 µM
inhibition at 20 µM (HEK293 cells): 100%

Nc1cccnc1Nc1ccc(Cl)cc1 [MMV676524]
CC50 (HepG2; [5]): 9 µM

CCc1nc2ccc(C(=O)NCc3ccc4c(c3)OCO4)cn2c1N(C)Cc1cccs1 [MMV407539]
HepG2 PBox CC20 μMc (HepG2; [4]): 18.6 µM

COc1ccc(-c2onc(C(F)(F)F)c2-c2ccc(Cl)cc2)c(O)c1 [MMV688766]
IC50 [1, 6]: 0.85 µM
IC50 (HEK293 cells): > 20 µM
IC50 [2, 7]: 1.31 µM

CCS(=O)(=O)N(Cc1ccco1)Cc1cc2ccc(C)cc2nc1O [MMV676398]
HepG2 PBox CC20 μMc (HepG2; [4]): >80 µM

CC1(C)Cc2c(c(N3CCOCC3)nc3snc(Br)c23)CO1 [MMV687794]
IC50 (P. falciparum ABS): 0.29 µM
IC50 (HEK293 cells): > 20 µM

CCc1ccc([C@@H]2C[C@H](C(F)(F)F)n3ncc(C(=O)NCc4ccc(OC)cc4)c3N2)cc1 [MMV687180]
CC50 (HepG2; [5]): 50.6 µM

CCCCOC(=O)Nc1cc2nc(C3CCCCC3)[nH]c2cc1N1CCCC1 [MMV687730]
CC50 (HepG2; [5]): 26.8 µM

CCOC(=O)c1cc(-c2csc(Nc3c(C)cc(C)cc3C)n2)on1 [MMV676461]
CC50 (HepG2; [5]): 24.4 µM

Clc1ccc(-n2cc(COc3ccnc4ccccc34)nn2)cc1 [MMV675994]
HepG2 PBox CC20 (HepG2; [11]): 13.6 µM

COc1ccc(-c2cnc3cnc(-c4cccc(OC(C)C)c4)cn23)cc1 [MMV688270]
HepG2 PBox CC20 μMc (HepG2; [4]): 24.3 µM

COc1ccc(Nc2ccccc2NC(=O)c2ccc(O)nc2)cc1 [MMV676554]
CC50 (HepG2; [5]): 42.5 µM

O=C(NCc1ccco1)N1CCN(Cc2ccc(Cl)s2)CC1 [MMV688555]
CC50 (HepG2; [10]): > 100 µM

Cc1cc(O)nc(-n2nc(C)cc2C)n1 [MMV393995]
CC50 (HepG2): 60.7 µM

O=C1[C@@H](Oc2ccccc2)[C@@H](c2ccc(Cl)cc2)N1CCn1cnc2c(NCc3ccccc3)ncnc21 [MMV688352]
CC50 (HepG2; [10]): 3 µM

O=C(NC1=NCCS1)c1sc2cc(F)ccc2c1Cl [MMV676584]
CC50 (HepG2; [5]): > 100 µM

COc1cccc(OC)c1C(=O)Nc1ccc(Cl)c(-c2nc3ccccc3s2)c1 [MMV676472]
CC50 (HepG2; [5]): > 100 µM

COc1cccc(-n2nnnc2S(=O)(=O)Cc2ccccc2)c1 [MMV676388]
IC50 [1, 6]: 4.93 µM
IC50 [1, 8]: 4 to 5 µM
IC50 [2, 7]: 2.99 µM

CS(=O)(=O)N1CCC(Cn2nc(Cc3cccc4ccccc34)c3c(N)ncnc32)CC1 [MMV676050]
HepG2 PBox CC20 (HepG2; [11]): 53 µM
inhibition at 20 µM (HEK293 cells): 77%

Cc1ccc2oc(-c3cc(NC(=O)Cc4ccccc4)ccc3Cl)nc2c1 [MMV676509]
CC50 (HepG2; [5]): 83.6 µM

COc1ccc2nc(C)cc(OCC(=O)NCc3ccccc3)c2c1 [MMV687189]
CC50 (HepG2; [5]): > 100 µM

COCC(C)NC(=O)CSc1ncnc2sc(-c3ccccc3)cc12 (stereo not drawn) [MMV676536]
HepG2 PBox CC20 μMc (HepG2; [4]): >80 µM

NC(=O)c1cc(-c2ccsc2)ccc1OCCOc1ccccc1 [MMV687138]
CC50 (HepG2; [5]): > 100 µM

O=C(NCCc1ccccc1)c1cc(-c2cccnc2)cnc1NCC1CC1 [MMV026490]
EC50 (P. falciparum ABS): 0.85 µM
IC50 (P. falciparum ABS): 1.29 µM
IC50 [3, 9]: 6.02 µM
IC50 (HEK293 cells): > 20 µM

CCOC(=O)NC(=O)c1ccsc1NC(=O)c1nc2ccccc2s1 [MMV090930]
CC50 (HepG2; [5]): 47 µM

CCc1nc2ccccc2n1CC(O)COc1cc(C)ccc1Cl (stereo not drawn) [MMV676449]
CC50 (HepG2; [5]): 43.2 µM

COc1ccc(-c2nnc3ccc(-c4cccc(C(C)C)c4)cn23)cc1OC [MMV688313]
HepG2 PBox CC20 μMc (HepG2; [4]): 7.5 µM

CCC(C)NC(=O)c1ccc(NC(=O)C2(c3ccccc3)CCCC2)cc1 (stereo not drawn) [MMV146306]
CC50 (HepG2; [5]): > 100 µM

CC(C)(C)OC(=O)N1CCN(c2nccc(-c3ccc(-c4ccc(Cl)cc4)s3)n2)CC1 [MMV688416]
CC50 (HepG2; [10]): > 50 µM

NCC(c1cccs1)S(=O)(=O)c1ccccc1 (stereo not drawn) [MMV688557]
CC50 (HepG2; [10]): 35.4 µM

COc1ccc(N(CCc2cccc(C)n2)C(=O)C2CCCCC2)cc1 [MMV675996]
HepG2 PBox CC20 μMc (HepG2; [4]): >80 µM

Cc1nn(Cc2ccccc2)c(Cl)c1C(=O)NC1CCCCCC1 [MMV063404]
CC50 (HepG2): > 100 µM

c1ccc(Oc2ccc(-c3cncc(-c4ccc5[nH]ccc5c4)n3)cc2)cc1 [MMV688178]
HepG2 PBox CC20 μMc (HepG2; [4]): 25.7 µM

COc1cc(NC(=O)Cc2nn(C)c(=O)c3ccccc23)ccc1Cl [MMV676053]
HepG2 PBox CC20 (HepG2; [11]): >80 µM

COc1ccc(C2(C(=O)Nc3ccc(Br)cc3)CCCC2)cc1 [MMV200748]
CC50 (HepG2; [5]): > 100 µM

COc1ccc(-c2nc(-c3cccc(NC(=O)Cc4ccc(F)cc4)c3)no2)cc1OC [MMV676571]
CC50 (HepG2; [5]): > 100 µM

CN1CCN(CCCOc2ncc(Nc3ncc(-c4ccc(C(F)(F)F)c(F)c4)nc3C(N)=O)cn2)CC1 [MMV687812]
CC50 (HepG2; [5]): 3.9 µM
IC50 ([1]; 3D7, read-out: Pf 3D7 Discovery Biology IC50 µM, P. falciparum 3D7 asexual blood stage, Discovery Biology): 1.6 µM
inhibition at 20 µM (HEK293 cells): 100%

COc1cccc(-n2nnnc2S(C)(=O)=O)c1 [MMV272144]
CC50 (HepG2; [5]): 1.7 µM
IC50 [3, 9]: 4.12 µM
inhibition at 20 µM (HEK293 cells): 100%
IC50 ([2]; NF54, read-out: Pf Stage IV GAMS Discovery Biology IC50 µM, stage IV gametocytes, Discovery Biology): 1.92 µM

CCc1ccc(S(=O)(=O)Nc2cc(CN3CCN(CCC(C)C)CC3)ccc2C)cc1 [MMV688124]
CC50 (HepG2; [5]): 27.4 µM

O=C(NCc1ccoc1)N1CCN(Cc2ccc3c(c2)OCO3)CC1 [MMV688553]
CC50 (HepG2; [10]): > 100 µM

CC1(C)OB(O)c2ccc(C3=NOC(c4cc(Cl)c(F)c(Cl)c4)(C(F)(F)F)C3)cc21 (stereo not drawn) [MMV687775]
HepG2 PBox CC20 μMc (HepG2): 15.4 µM

Oc1c(I)cc(I)c2cccnc12 [MMV002817]
HepG2 PBox CC20 μMc (HepG2; [4]): 2.5 µM

CCCn1nnc(NC(=O)COc2ccc(C3CCCCC3)cc2)n1 [MMV676597]
CC50 (HepG2; [5]): > 100 µM

Source: PMC5571359, “Screening the Medicines for Malaria Venture Pathogen Box across Multiple Pathogens Reclassifies Starting Points for Open-Source Drug Discovery” (Antimicrobial Agents and Chemotherapy, 2017)
